{
  "source": "patent US20220347294A1",
  "about": "“COMPOSITIONS AND METHODS FOR INCREASING THE EFFICACY OF IMMUNOTHERAPIES AND VACCINES” (The Regents of the University of Michigan, priority 2019, published 2022)",
  "key": {"CT26 cells [1]": {"test_system": "CT26 cells", "assay": "Prophylactic oral gavage plus α-PD-1 in the CT26 tumor model", "assay_type": "in vivo, BALB/c mice", "method": "FIG. 1A-F: In vivo screening of the candidate materials to prophylactically improve the anti-tumor efficacy of α-PD-1. (A) Mice were prophylactically gavaged various samples on day −7 for three times. Then 1.5×10^5 CT26 cells were inoculated in BALB/c mice subcutaneously (s.c.) on day 0. Mice were gavaged three times again in the first week post tumor inoculation and 5 times per week from day 7. α-PD-1 was i.p. injected on days 10, 14, 18 and 24 at 100 μg/dose. (B) Individual tumor growth curves and (C) average tumor growth curves for mice gavaged with various compounds. (D) Survival rate curves of various groups. (E) The average frequency of AH1-specific CD8^+ T cells in peripheral blood on day 22. (F) The representative scatter plots were measured via flow cytometry. Data represent mean±SEM. *p<0.05, **p<0.01, analyzed by two-way ANOVA (B), or t-test (E), log-rank (Mantel-Cox) test (D).\nAmong the FDA's list, five candidate materials were selected for the initial screening. Melatonin, found in pineal gland and gastrointestinal tracta, regulates sleep cycle and circadian rhythm. Epigallocatechin gallate (EGCG) is a natural antioxidant in plants. […]\nMice were cared for under the guidelines from federal, state and local. […] Tumor size was measured at preset time, and tumor volume was calculated as length×width^2. […]"}, "[2]": {"test_system": "AH1-specific CD8+ T cells", "assay": "Tetramer analysis of AH1-specific CD8+ T cells in PBMCs", "assay_type": "in vivo, BALB/c mice", "description": "The effect of these materials were next tested on systemic immune responses. The surrogate marker of tumor specific antigen, MHC-I minimal epitope of CT-26 gp70 (AH1) (H-2L^d-restricted SPSYVYHQF (SEQ ID NO.: 1)), was employed to quantitate the frequency of AH1-specific CD8^+ T cells among peripheral blood mononuclear cells (PBMCs). Mice orally gavaged with inulin and melatonin combined with α-PD-1 IgG induced 1.7-fold and 1.8-fold greater frequencies of AH1-specific CD8^+ T cells, compared with α-PD-1 treatment alone (FIGS. 1E and F).\nPeripheral blood mononuclear cells (PBMCs) were collected at preset times to analyze tumor antigen-specific CD8^+ T cells in the systemic circulation. Red blood cells were lysed, and the remaining cells were blocked with anti-CD16/32 antibody for 10 min and stained with peptide-MHC tetramer, including H-2L^d-restricted SPSYVYHQF (SEQ ID NO.: 1) or H-2D^b-restricted ASMTNMELM (SEQ ID NO.: 3). Both the tetramers were provided by NIH Tetramer Core Facility. Cells were also stained anti-CD8-APC (BD Biosciences, #553035) and DAPI for flow cytometric analysis."}, "CT26 cells [3]": {"test_system": "CT26 cells", "assay": "Therapeutic oral gavage plus α-PD-1 in the CT26 tumor model", "assay_type": "in vivo, BALB/c mice", "quoted_text": "(A) 1.5×10^5 CT26 cells were inoculated in BALB/c mice subcutaneously (sc) on day 0. Mice were gavaged from day 7 (5 times per week). On days 11, 15, 19 and 23, α-PD-1 was injected intraperitoneally (ip) at 100 μg per dose. (B) The average tumor growth curves for mice gavaged with various compounds. Data represent mean±SEM. (C) Individual tumor growth curves and (D) survival rate curves of various groups. […] All the data are from 2-3 independent experiments; n=10 (B, C, D), n=7-10 (E, F) *p<0.05, **p<0.01, analysed by two-way ANOVA (B), one-way ANOVA (E, F) or log-rank (Mantel-Cox) test.\n(B) The average tumor growth curves and individual tumor growth curve for mice gavaged with inulin or inulin gel (60 mg/dosage). 1.5×10^5 CT26 cells were inoculated in BALB/c mice subcutaneously. Gavage started from day 7 (5 times per week) and 100 μg of α-PD-1 was ip injected on days 11, 15, 19, 23 and 27. (C) The survival rate curves of various groups. […] PBS was used as a control. […] Shown are the average and individual tumor growth curves for tumor-bearing mice. IgG antibody was used as a control group. Data represent mean SEM. All the data are from 2-3 independent experiments; n=10 (B, C), n=5 (D, I), n=10-15 (E), n=4-7 (G, F), *p<0.05, **p<0.01, ***p<0.001, analysed by one-way ANOVA (E, F), two-way ANOVA (B, I), or log-rank (Mantel-Cox) test (C).\nFemale C57BL/6 or BALB/c mice of 6-8-week old were obtained from Jackson Laboratory. BALB/c mice were inoculated with 1.5×10^5 CT26 cells per mouse, while C57BL/6 mice were inoculated with 1.2×10^6 MC38 cells per mouse on the right flank by subcutaneous injection on day 0. Tumor-bearing mice were randomly assigned to different groups on day 5. For prophylactic antitumor study, mice were received oral gavage with melatonin (100 mg/Kg bodyweight/dosage), EGCG (100 mg/Kg bodyweight/dosage), fucoidan (200 mg/Kg bodyweight/dosage), oligofructose (120 mg/dosage), or inulin (120 mg/dosage) three times for one week prior to tumor inoculation. After tumor inoculation, mice received oral gavage three times in the first week, followed by five times per week. Mice were injected i.p. with α-PD-1 antibody (100 μg/dosage) on days 10, 14, 18 and 22 post tumor inoculation. For the therapeutic therapy, mice were inoculated with tumor cells on day 0 as indicated above and treated with the indicated samples by oral gavage starting day 7 post tumor inoculation."}, "[4]": {"assay": "SCFAs measurement in fecal pellets", "assay_type": "in vivo, mice", "settings": "oral gavage of inulin", "method": "Fresh fecal pellets of mice were collected and weighted on day 20 post tumor inoculation and treatments. Fecal pellets were homogenized in DI water and centrifuged at 3000×g for 5 min. The pH of the supernatant was detected by pH meter. For SCFAs measurement, SCFAs were extracted from the fecal pellets using Milli-Q water. The solution was centrifuged for 5 min at 10000×g (4° C.) to pellet bacteria and other solids. The supernatant was collected, and SCFAs were measured via ion chromatography in University of Michigan Biological Station. The concentration of SCFAs was determined using an external standard method."}},
  "data": [
    {"substance": "inulin", "values": [
      {"measurement": "anti-tumor efficacy compared with α-PD-1 alone", "setting": "CT26 cells [1]; prophylactic oral gavage from one week before tumor inoculation, combined with α-PD-1 i.p. 100 μg/dose", "value": "best efficacy"},
      {"measurement": "mice still surviving on day 50", "setting": "CT26 cells [1]; prophylactic oral gavage, inulin 120 mg/dosage, combined with α-PD-1", "value": 60, "unit": "%"},
      {"measurement": "frequencies of AH1-specific CD8+ T cells among PBMCs, fold greater than α-PD-1 treatment alone", "setting": "[2]; prophylactic oral gavage combined with α-PD-1 IgG, peripheral blood day 22", "value": 1.7, "unit": "fold"},
      {"measurement": "AH1-specific CD8+ T cells among PBMCs", "setting": "[2]; therapeutic setting, day 18 and 24, combined with α-PD-1", "value": "significantly higher"},
      {"measurement": "combination efficacy with α-PD-1 against tumor growth after reducing the dosage by half", "setting": "CT26 cells [3]; 60 mg for inulin, 50 mg/Kg for melatonin", "value": "did not compromise"},
      {"measurement": "animal survival", "setting": "CT26 cells [3]; therapeutic oral gavage from day 7, combined with α-PD-1 IgG", "value": "extended animal survival"},
      {"measurement": "anti-tumor efficacy", "setting": "CT26 cells [3]; therapeutic oral gavage from day 7, combined with α-PD-1 IgG, compared among candidate agents", "value": "strongest anti-tumor efficacy"},
      {"measurement": "concentration of lactate, propionate and butyrate in fecal pellets", "setting": "[4]", "value": "increased"}
    ]}
  ]
}
